Test [1] deals with ECO-1: Escherichia coli 1139#. In words: Drug sensitivity of clinical isolated strain. Note: key: R: resistant; S: sensitive. The class given is cell-based.
Test [2] deals with ECL-1: Enterobacter cloacae 0431#. Nature of the test: Drug sensitivity of clinical isolated strain. Note: key: R: resistant; S: sensitive. Format: cell-based. Particulars: ECL-1 (Table 3).
For test [3], the system named is ECO-3: E. coli ZY-1. In words: Drug sensitivity of clinical isolated strain. Note: key: R: resistant; S: sensitive. Format: cell-based, Escherichia coli.
In test [4] the test system is PA-1: Pseudomonas aeruginosa 1298#. In words: MIC of silver with antibiotics on clinical isolated MDR Gram-negative bacteria. The class given is cell-based. Particulars: antibiotic 4 μM. As to the method: (§1) There are five clinically most difficult-to-treat MDR Gram-negative pathogen species: Klebsiella pneumonia, Acinetobacter baumannii, Pseudomonas aeruginosa, Enterobacter cloacae and Escherichia coli. One strain from each species was isolated, and overnight cultures were diluted 1:1000 times in LB medium, and treated with serial concentrations of Ag^+ and antibiotics in combinations for 24 h (Table 10).
(§2) Five clinical isolated MDR Gram-negative strains were grown until an OD600 nm of 0.4, and were diluted 1:1,000 into 100 μl LB medium in 96 micro-well plates. […] The cultures treated with the same serial dilutions of 100 μl ebselen and silver nitrate were used as the positive control.

The subject of test [5] is ECO-1: Escherichia coli 1139#. The test is described as above. Format: cell-based. The following applies: antibiotic 4 μM. The procedure: as §1, §2
Test [6] deals with AB-1: Acinetobacter baumannii H#. The test is described as above. The following applies: antibiotic 4 μM. Format: cell-based. The procedure:
as §1, §2

For test [7], the system named is PA-1: Pseudomonas aeruginose 1298#. Nature of the test: Drug sensitivity of clinical isolated strain. Note: key: R: resistant; S: sensitive. The class given is cell-based, Pseudomonas aeruginosa.
The test system of test [8] is AB-1: Acinetobacter baumannii H#. Nature of the test: Drug sensitivity of clinical isolated strain. Note: key: R: resistant; S: sensitive. Format: cell-based.
Test [9] deals with ECL-2: E. cloacae 2301#. In words: Drug sensitivity of clinical isolated strain. Note: key: R: resistant; S: sensitive. The class given is cell-based, Enterobacter cloacae.
Test [10] concerns AB-2: A. baumannii 0361#. Nature of the test: Drug sensitivity of clinical isolated strain. Note: key: R: resistant; S: sensitive. The following applies: AB-2 (Table 3). The class given is cell-based, Acinetobacter baumannii.
Test [11] relates to PA-2: P. aeruginose 0009#. Nature of the test: Drug sensitivity of clinical isolated strain. Note: key: R: resistant; S: sensitive. Format: cell-based, Pseudomonas aeruginosa. The following applies: PA-2 (Table 3).
Test [12] relates to ECO-2: E. coli 2219#. In words: Drug sensitivity of clinical isolated strain. Note: key: R: resistant; S: sensitive. Format: cell-based, Escherichia coli. The following applies: ECO-2 (Table 3).
Test [13] concerns KP-2: K. pneumonia subsp. pneumonia 0322#. In words: MIC of silver with antibiotics on clinical isolated MDR Gram-negative bacteria. The class given is cell-based, Klebsiella pneumonia. The following applies: antibiotic 4 μM. As to the method: as §1, §2
Test [14] has as its system ECL-2: E. cloacae 2301#. The description is as above. The following applies: antibiotic 4 μM. Format: cell-based, Enterobacter cloacae. The procedure:
as §1, §2

Test [15] concerns KP-1: Klebsiella pneumonia subsp. pneumonia 13#. Nature of the test: Drug sensitivity of clinical isolated strain. Note: key: R: resistant; S: sensitive. Format: cell-based. The following applies: KP-1 (Table 3).
The test system of test [16] is KP-2: K. pneumonia subsp. pneumonia 0322#. Nature of the test: Drug sensitivity of clinical isolated strain. Note: key: R: resistant; S: sensitive. The class given is cell-based, Klebsiella pneumonia.
For test [17], the system named is wild type E. coli DHB4. Nature of the test: MIC of nine antibiotics and silver in combinations on E. coli DHB4. The class given is cell-based, Escherichia coli. The following applies: 24 h. The procedure: E. coli DHB4 overnight cultures were diluted 1:1000 times in Luria Bertani (LB) medium, and treated with serial dilutions of ionic silver (Ag^+) as a nitrate salt and 9 antibiotics in combinations, separately, for 24 h.
E. coli DHB4 from frozen stock were grown overnight at 37° C., 400 rpm. The overnight culture was diluted 1:100 with 5 ml of LB medium in 15 ml tubes and incubated at 37° C. at 400 rpm. Cells were grown until an OD600 nm of 0.4 and were used for antibiotic treatment. Briefly, cells were diluted 1:1,000 into 100 μl of LB medium in 96 micro-well plates. […] The minimum inhibition concentration (MIC) was determined as the lowest concentration of drugs that inhibited 90% of growth compared to the untreated cells after 24 h culture at 37° C. The cultures treated with the same serial dilutions of 100 μl ebselen and silver nitrate were used as the positive control.

Test [18] has as its system GSH. In words: GSH amount in treated E. coli cell extracts, GR-coupled DTNB reduction. The following applies: 5 μM Ag^+ and 80 μM antibiotic; 10 min; compared with antibiotics themselves. Format: cell-based, Escherichia coli.
Test [19] has as its system E. coli. Nature of the test: Degree of synergy, Bliss Independence Model. The class given is cell-based, Escherichia coli. The following applies: 5 μM AgNO3 with 80 μM antibiotic; 1 and 4 h.

Regarding `CN(C)[C@@H]1C(O)=C(C(N)=O)C(=O)[C@@]2(O)C(O)=C3C(=O)c4c(O)cccc4[C@@](C)(O)[C@H]3C[C@@H]12` [Tetracycline], the Drug sensitivity result in test [1] (ECO-1 (Table 3)) is listed as “R”; in test [1] (ECO-1 (table of Example 3)), “R”; in [2], “R”; in test [3] (E. coli ZY-1 (Table 7)), “R”; in test [3] (ECO-3 (Table 3)), “S”; in [7] (PA-1 (Table 3)) it was “R”. Further, the Drug sensitivity result in test [7] (PA-1 (table of Example 3)), in test [8] (AB-1 (Table 3)), in test [8] (AB-1 (table of Example 3)), in [9] (ECL-2 (Table 3)), in [9] (ECL-2 (table of Example 3)) and in [10] was “R” in each case. Also, the Drug sensitivity result in test [11] is listed as “R”; in test [12], “S”. For the same compound, the “MIC of silver in the presence of different antibiotics” value (“MIC … of different antibiotics” below) in test [4], in test [5] and in test [6] was 80 µM throughout.

On to `CN[C@@H]1[C@@H](O)[C@@H](O[C@@H]2[C@@H](O)[C@H](O[C@H]3O[C@H]([C@@H](C)O)[C@@H](O)[C@H](O)[C@H]3N)[C@@H](N)C[C@H]2N)OC[C@]1(C)O` [Geneticin], for which the “MIC … of different antibiotics” value was found to be 160 µM in test [13]; 80 µM in test [4]; 40 µM in [5]; 80 µM in test [6]; 160 µM in test [14].

For `NC[C@H]1O[C@H](O[C@H]2[C@H](O)[C@@H](O[C@H]3O[C@H](CO)[C@@H](O)[C@H](N)[C@H]3O)[C@H](N)C[C@@H]2N)[C@H](O)[C@@H](O)[C@@H]1O` [Kanamycin], the “MIC … of different antibiotics” value in [13] turned out to be 160 µM; in test [4] it was 80 µM; in test [5], 40 µM; in test [6] it was 80 µM; in [14], 160 µM.

In the case of Gentamicin, the Drug sensitivity entry is on record as “S” in test [1] (ECO-1 (Table 3)); “S” in test [1] (ECO-1 (table of Example 3)); “R” in [2]; “S” in [3] (E. coli ZY-1 (Table 7)); “S” in test [3] (ECO-3 (Table 3)); “R” in test [15]. The Drug sensitivity result in test [7] (PA-1 (Table 3)) is “S”; in test [7] (PA-1 (table of Example 3)), “S”; in [8] (AB-1 (Table 3)) it was “R”; in [8] (AB-1 (table of Example 3)), “R”; in test [9] (ECL-2 (Table 3)), “R”; in test [9] (ECL-2 (table of Example 3)), “R”. In addition, the Drug sensitivity result in test [16] (KP-2 (Table 3)), in test [16] (KP-2 (table of Example 3)), in test [10], in test [11] and in [12] was “R” throughout. The “MIC … of different antibiotics” value in test [13] was determined as 160 µM; in test [4], 40 µM; in test [5] it was 40 µM; in test [6] it was 80 µM; in test [14] it was 160 µM. Moreover, the “Antibacterial effect as MIC of antibiotic and silver” value in test [17] (listed as head Silver (μM) 0) was determined as 40 µM; in test [17] (listed as head Silver (μM) 1) it was 20 µM; in [17] (listed as head Silver (μM) 2) it was 2.5 µM; in test [17] (listed as head Silver (μM) 4), 1.25 µM. In test [17] (serial dilutions of Ag^+ and antibiotic), the “activity with silver on E. coli DHB4 growth” value is reported as “synergistic activity”. In addition, the “total GSH amount in cell extracts” value in test [18] is reported as “slightly deplete”. Moreover, in test [19], the “degree of synergy with Ag^+ (Bliss model)” value was “synergistic combinations”.

As for `C[C@]1(Cn2ccnn2)[C@H](C(=O)O)N2C(=O)C[C@H]2S1(=O)=O` [Tazobactam], the Drug sensitivity result in test [1] (ECO-1 (Table 3)) was “S”; in test [1] (ECO-1 (table of Example 3)) it was “S”; in [2], “S”; in test [3] (E. coli ZY-1 (Table 7)) it was “S”; in test [3] (ECO-3 (Table 3)), “S”; in test [15] it was “R”. The Drug sensitivity entry is recorded as “R/S” in test [7] (PA-1 (Table 3)); “R/S” in [7] (PA-1 (table of Example 3)); “R” in test [8] (AB-1 (Table 3)); “R” in [8] (AB-1 (table of Example 3)); “R” in test [9] (ECL-2 (Table 3)); “R” in [9] (ECL-2 (table of Example 3)). Further, the Drug sensitivity entry in test [16] (KP-2 (Table 3)) is recorded as “R”; in test [16] (KP-2 (table of Example 3)), “R”; in [10], “R”; in test [11], “R”; in test [12] it was “R/S”.

On to `NCC[C@H](O)C(=O)N[C@@H]1C[C@H](N)[C@@H](O[C@H]2O[C@H](CN)[C@@H](O)[C@H](O)[C@H]2O)[C@H](O)[C@H]1O[C@H]1O[C@H](CO)[C@@H](O)[C@H](N)[C@H]1O` [Amikacin], for which the Drug sensitivity entry in [1] (ECO-1 (Table 3)) is “S”; in test [1] (ECO-1 (table of Example 3)), “S”; in [2] it was “S”; in test [3] (E. coli ZY-1 (Table 7)) it was “S”; in test [3] (ECO-3 (Table 3)), “S”; in test [15] it was “R”. Also, the Drug sensitivity result in test [7] (PA-1 (Table 3)) is “S”; in test [7] (PA-1 (table of Example 3)) it was “S”; in [8] (AB-1 (Table 3)) it was “R”; in [8] (AB-1 (table of Example 3)) it was “R”; in test [9] (ECL-2 (Table 3)), “S”; in [9] (ECL-2 (table of Example 3)) it was “S”. For the same compound, the Drug sensitivity entry in [16] (KP-2 (Table 3)) is “S”; in [16] (KP-2 (table of Example 3)), “S”; in test [10], “R”; in test [11], “R”; in test [12] it was “S”.

For `CO/N=C(\C(=O)N[C@@H]1C(=O)N2C(C(=O)[O-])=C(C[N+]3(C)CCCC3)CS[C@H]12)c1csc(N)n1` [Cefepime], the Drug sensitivity entry in test [1] (ECO-1 (Table 3)) is reported as “R”; in test [1] (ECO-1 (table of Example 3)) it was “R”; in test [2], “R”; in test [3] (E. coli ZY-1 (Table 7)), “S”; in [3] (ECO-3 (Table 3)), “S”; in test [15], “R”. Moreover, the Drug sensitivity entry in [7] (PA-1 (Table 3)), in [7] (PA-1 (table of Example 3)), in [8] (AB-1 (Table 3)), in test [8] (AB-1 (table of Example 3)), in test [9] (ECL-2 (Table 3)) and in test [9] (ECL-2 (table of Example 3)) was “R” each time. Moreover, the Drug sensitivity entry in [16] (KP-2 (Table 3)), in test [16] (KP-2 (table of Example 3)), in test [10], in [11] and in test [12] was “R” throughout.

On to `CO/N=C(\C(=O)N[C@@H]1C(=O)N2C(C(=O)O)=C(COC(C)=O)CS[C@H]12)c1csc(N)n1` [Cefotaxime], for which the Drug sensitivity entry is listed as “R” in test [1] (ECO-1 (Table 3)); “R” in test [1] (ECO-1 (table of Example 3)); “R” in test [2]; “S” in test [3] (E. coli ZY-1 (Table 7)); “S” in [3] (ECO-3 (Table 3)); “R” in [15]. Also, the Drug sensitivity entry in test [7] (PA-1 (Table 3)), in [7] (PA-1 (table of Example 3)), in test [8] (AB-1 (Table 3)), in test [8] (AB-1 (table of Example 3)), in test [9] (ECL-2 (Table 3)) and in test [9] (ECL-2 (table of Example 3)) was “R” throughout. Also, the Drug sensitivity entry in [16] (KP-2 (Table 3)), in test [16] (KP-2 (table of Example 3)), in test [10], in test [11] and in test [12] was “R” throughout.

The values are drawn from patent publication US10653717B2, “Antibiotic compositions” (priority 2016, dated 2020).
